This note sets out measurements from patent US20240228488A1 (TAKEDA PHARMACEUTICAL COMPANY LIMITED, priority 2021, published 2024).

Test [1] deals with human activated kallikrein enzyme (Homo sapiens, UniProt P03952). Kind of test: Plasma kallikrein inhibition, fluorogenic PFR-AMC substrate, 500 pM activated kallikrein format. In kind it is biochemical. The following applies: 500 pM activated kallikrein, 300 uM PFR-AMC, 30 min preincubation, 10 min reaction; read-out: Primary Dose Response Assay: Average EC50. The method, boiled down: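 High-enzyme format of the fluorogenic peptide assay, with EC50 taken from AMC signal: 500 pM activated kallikrein, 300 uM Pro-Phe-Arg-AMC, 30 min compound preincubation and 10 min reaction, all at room temperature, pH 7.5.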
human activated kallikrein enzyme, sequence (P03952 391-638 limits assumed): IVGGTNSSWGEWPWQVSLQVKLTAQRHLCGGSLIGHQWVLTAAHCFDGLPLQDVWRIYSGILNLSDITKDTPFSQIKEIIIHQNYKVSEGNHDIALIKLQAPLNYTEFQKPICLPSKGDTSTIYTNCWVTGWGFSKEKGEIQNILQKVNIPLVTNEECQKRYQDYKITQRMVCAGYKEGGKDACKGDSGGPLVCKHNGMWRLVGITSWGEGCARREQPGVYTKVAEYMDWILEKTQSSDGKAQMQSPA
human activated kallikrein enzyme, sequence (P03952 20-390 partner limits assumed): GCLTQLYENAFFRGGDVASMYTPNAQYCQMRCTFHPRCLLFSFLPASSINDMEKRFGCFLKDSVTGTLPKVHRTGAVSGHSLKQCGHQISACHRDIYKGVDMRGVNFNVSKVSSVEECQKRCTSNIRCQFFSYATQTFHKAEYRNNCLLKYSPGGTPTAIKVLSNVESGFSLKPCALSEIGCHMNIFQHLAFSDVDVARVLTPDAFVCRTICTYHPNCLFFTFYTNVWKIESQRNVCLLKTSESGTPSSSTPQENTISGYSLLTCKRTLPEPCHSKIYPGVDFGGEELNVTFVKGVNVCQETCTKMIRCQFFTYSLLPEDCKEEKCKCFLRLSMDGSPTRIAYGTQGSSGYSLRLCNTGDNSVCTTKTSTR

In test [2] the target is T1, plasma kallikrein (Homo sapiens, UniProt P03952).
T1 construct: from tissue
T1 sequence (P03952 391-638 limits assumed): as the sequence (P03952 391-638 limits assumed) above
T1 sequence (P03952 20-390 partner limits assumed): as the sequence (P03952 20-390 partner limits assumed) above
The experiment in a line: Neat human plasma assay, FXIIa contact pathway-activated, PFR-AMC substrate. In kind it is biochemical. Particulars: citrated human plasma 78% final, 10 nM human FXIIa, 100 μM PFR-AMC; read-out: Human Plasma Assay: IC90. The method, boiled down: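 Compound inhibition of plasma kallikrein measured as PFR-AMC (100 μM) cleavage rate over 5 min at room temperature in 78% citrated human plasma activated with 10 nM FXIIa (Tris pH 7.5 buffer). IC50/IC90 from 4-parameter fit of rate versus inhibitor concentration.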

What is called EC50 is the concentration that produces a half-maximal response. As a reminder, the IC90 is the concentration needed for an effect of 90%.

For the compound `CNCc1cc(C2CC2)cn2cc(CNc3ccnc(NC(=O)[C@H]4C[C@@H]4c4cccc(Cl)c4)c3)nc12` [Example 595, (1S,2S)-2-(3-chlorophenyl)-N-(4-(((6-cyclopropyl-8-((methylamino)methyl)imidazo[1,2-a]pyridin-2-yl)methyl)amino)pyridin-2-yl)cyclopropane-1-carboxamide], in test [1], the EC50 was < 1 nM. In test [2], the IC90 is < 400 nM.

Take `CN(C)C1CC(=O)N(c2cc(C3CC3)cn3cc(CNc4cc(NC(=O)[C@H]5C[C@@H]5c5cccc(Cl)c5)ncn4)nc23)C1` (stereo partly drawn) [Example I-18, (1S,2S)-2-(3-chlorophenyl)-N-(6-(((6-cyclopropyl-8-(4-(dimethylamino)-2-oxopyrrolidin-1-yl)imidazo[1,2-a]pyridin-2-yl)methyl)amino)pyrimidin-4-yl)cyclopropane-1-carboxamide]: the EC50 in test [1] was < 1 nM. Also, in test [2], the IC90 is < 400 nM.

Consider `Cc1ccnc([C@H]2C[C@@H]2C(=O)Nc2cc(N[C@H](C)c3cn4cc(C5CC5)cc(N5CCOC5=O)c4n3)ncn2)n1` [Example 534, (1S,2S)-N-(6-(((R)-1-(6-cyclopropyl-8-(2-oxooxazolidin-3-yl)imidazo[1,2-a]pyridin-2-yl)ethyl)amino)pyrimidin-4-yl)-2-(4-methylpyrimidin-2-yl)cyclopropane-1-carboxamide], for which the EC50 in test [1] is < 1 nM. Further, the IC90 in test [2] is < 400 nM.

With `O=C(Nc1cc(N2C[C@@H](O)C[C@@H]2c2cn3cc(C4CC4)ccc3n2)ncn1)[C@H]1C[C@@H]1c1cccc(Cl)c1` [Example 283, (1S,2S)-2-(3-chlorophenyl)-N-(6-((2R,4S)-2-(6-cyclopropylimidazo[1,2-a]pyridin-2-yl)-4-hydroxypyrrolidin-1-yl)pyrimidin-4-yl)cyclopropane-1-carboxamide], the half-maximal effective concentration (EC50) in test [1] lay in the range of 1 to 10 nM. For the same compound, the IC90 in test [2] lay within 1500 to 10000 nM.

Regarding `CN(C)C1CN(c2cc(C3CC3)cn3cc(CNc4ccnc(NC(=O)[C@H]5C[C@@H]5c5cccc(Cl)c5)c4)nc23)C1` [Example I-4, (1S,2S)-2-(3-chlorophenyl)-N-(4-(((6-cyclopropyl-8-(3-(dimethylamino)azetidin-1-yl)imidazo[1,2-a]pyridin-2-yl)methyl)amino)pyridin-2-yl)cyclopropane-1-carboxamide], the EC50 in test [1] is < 1 nM. Also, the IC90 in test [2] fell in the range of 1500 to 10000 nM.

Regarding `Cc1ccnc([C@H]2C[C@@H]2C(=O)Nc2cc(OCc3cn4cc(C5CC5)cc(N5CC(=O)N(C)C5=O)c4n3)ncn2)n1` (single isomer, unassigned) [Example 30], in test [1], the concentration for a half-maximal effect (EC50) was < 1 nM. Besides, the concentration for an effect of 90% (IC90) in test [2] is < 400 nM.

Regarding `CS(=O)(=O)c1cc(C2CC2)cn2cc(CNc3cc(NC(=O)[C@H]4C[C@@H]4c4cccc(Cl)c4)ncn3)nc12` (racemic) [Example 60, rac-(1S*,2S*)-2-(3-chlorophenyl)-N-(6-(((6-cyclopropyl-8-(methylsulfonyl)imidazo[1,2-α]pyridin-2-yl)methyl)amino)pyrimidin-4-yl)cyclopropane-1-carboxamide], in test [1], the EC50 fell in the range of 1 to 10 nM. For the same compound, the IC90 in test [2] lay within 10000 to 48000 nM.

For `O=C(Nc1cc(NCc2cn3cc(C4CC4)cc(N4CCNCC4)c3n2)ccn1)[C@H]1C[C@@H]1c1cccc(Cl)c1` [Example 132, (1S,2S)-2-(3-chlorophenyl)-N-(4-(((6-cyclopropyl-8-(piperazin-1-yl)imidazo[1,2-a]pyridin-2-yl)methyl)amino)pyridin-2-yl)cyclopropane-1-carboxamide], the EC50 in test [1] is < 1 nM. In test [2], the concentration for an effect of 90% (IC90) fell in the range of 400 to 1500 nM.

On to `N#Cc1ccc(Cl)cc1[C@H]1C[C@@H]1C(=O)Nc1cc(NCc2cn3cc(C4CC4)ccc3n2)ccn1` (racemic) [Example 82, rac-(1S*,2S*)-2-(5-chloro-2-cyanophenyl)-N-(4-(((6-cyclopropylimidazo[1,2-a]pyridin-2-yl)methyl)amino)pyridin-2-yl)cyclopropane-1-carboxamide], for which the 50% effective concentration (EC50) in test [1] was < 1 nM. The 90% effect concentration (IC90) in test [2] lay in the range of 10000 to 48000 nM.

On to `CC(O)c1cc(C2CC2)cn2cc(CNc3cc(NC(=O)[C@H]4C[C@@H]4c4cccc(Cl)c4)ncn3)nc12` (stereo partly drawn) [Example 281, (1S,2S)-2-(3-chlorophenyl)-N-(6-(((6-cyclopropyl-8-(1-hydroxyethyl)imidazo[1,2-a]pyridin-2-yl)methyl)amino)pyrimidin-4-yl)cyclopropane-1-carboxamide], for which the EC50 in test [1] is 1 to 10 nM. Further, in test [2], the IC90 is 10000 to 48000 nM.

With `CC1(C)CN(c2cc(C3CC3)cn3cc(CNc4cc(NC(=O)[C@H]5C[C@@H]5c5cccc(Cl)c5)ncn4)nc23)C(=O)O1` [Example I-199, (1S,2S)-2-(3-chlorophenyl)-N-(6-(((6-cyclopropyl-8-(5,5-dimethyl-2-oxooxazolidin-3-yl)imidazo[1,2-a]pyridin-2-yl)methyl)amino)pyrimidin-4-yl)cyclopropane-1-carboxamide], in test [1], the concentration giving a half-maximal response (EC50) lay within 1 to 10 nM. Also, the IC90 in test [2] is 1500 to 10000 nM.

`Cc1ccnc([C@H]2C[C@@H]2C(=O)Nc2ncc(F)c(NCc3cn4cc(C5CC5)cc(N5CC(=O)N(CCOCc6ccccc6)C5=O)c4n3)n2)n1` (racemic) [Example 515, rac-(1S*,2S*)-N-(4-(((8-(3-(2-(benzyloxy)ethyl)-2,4-dioxoimidazolidin-1-yl)-6-cyclopropylimidazo[1,2-a]pyridin-2-yl)methyl)amino)-5-fluoropyrimidin-2-yl)-2-(4-methylpyrimidin-2-yl)cyclopropane-1-carboxamide]: the EC50 in test [1] is < 1 nM. Moreover, in test [2], the IC90 was 400 to 1500 nM.

As to `Cc1ccnc([C@H]2C[C@@H]2C(=O)Nc2cc(NCc3cn4cc(C5CC5)cc(N5CC(=O)N(C)C5=O)c4n3)cc(C(F)(F)F)n2)n1` (racemic) [Example 618, rac-(1S*,2S*)—N-(4-(((6-cyclopropyl-8-(3-methyl-2,4-dioxoimidazolidin-1-yl)imidazo[1,2-a]pyridin-2-yl)methyl)amino)-6-(trifluoromethyl)pyridin-2-yl)-2-(4-methylpyrimidin-2-yl)cyclopropane-1-carboxamide], the EC50 in test [1] is < 1 nM. For the same compound, the concentration for an effect of 90% (IC90) in test [2] lay in the range of 400 to 1500 nM.

For the compound `Cc1ccnc([C@H]2C[C@@H]2C(=O)Nc2cc(N(C)Cc3cn4cc(C5CC5)cc(N5CC(=O)NC5=O)c4n3)nc(C3CC3)n2)n1` [Example 408, (1S,2S)-N-(2-cyclopropyl-6-(((6-cyclopropyl-8-(2,4-dioxoimidazolidin-1-yl)imidazo[1,2-a]pyridin-2-yl)methyl)(methyl)amino)pyrimidin-4-yl)-2-(4-methylpyrimidin-2-yl)cyclopropane-1-carboxamide], the half-maximal effective concentration (EC50) in test [1] was 1 to 10 nM. In addition, in test [2], the concentration for an effect of 90% (IC90) lay within 400 to 1500 nM.

As to `Cc1ccc(F)c([C@H]2C[C@@H]2C(=O)Nc2cc(NCc3cn4cc(C5CC5)cc(N5CC(=O)N(C)C5=O)c4n3)ncn2)n1` (racemic) [Example 502, rac-(1S*,2S*)-N-(6-(((6-cyclopropyl-8-(3-methyl-2,4-dioxoimidazolidin-1-yl)imidazo[1,2-a]pyridin-2-yl)methyl)amino)pyrimidin-4-yl)-2-(3-fluoro-6-methylpyridin-2-yl)cyclopropane-1-carboxamide], in test [1], the EC50 was < 1 nM. For the same compound, the 90% effect concentration (IC90) in test [2] was in the range of 400 to 1500 nM.

On to `O=C(Nc1cc(NCc2cn3cc(C4CC4)ccc3n2)ncn1)[C@H]1C[C@@H]1c1cc(Cl)ccc1Cl` (racemic) [Example 49, rac-(1S*,2S*)-N-(6-(((6-cyclopropylimidazo[1,2-a]pyridin-2-yl)methyl)amino)pyrimidin-4-yl)-2-(2,5-dichlorophenyl)cyclopropane-1-carboxamide], for which, in test [1], the EC50 was in the range of 100 to 1000 nM. Besides, the IC90 in test [2] is < 400 nM.

`O=C(Nc1cc(NCc2cn3cc(C4CC4)cc(N4CCOC4=O)c3n2)ccn1)[C@H]1C[C@@H]1c1cccc(Cl)c1` [Example I-238, (1S,2S)-2-(3-chlorophenyl)-N-(4-(((6-cyclopropyl-8-(2-oxooxazolidin-3-yl)imidazo[1,2-a]pyridin-2-yl)methyl)amino)pyridin-2-yl)cyclopropane-1-carboxamide]: the EC50 in test [1] was < 1 nM. Further, in test [2], the IC90 is < 400 nM.

Turning to `O=C(Nc1cc(NCc2cn3cc(C4CC4)cc(C4(O)CNC4)c3n2)ccn1)[C@H]1C[C@@H]1c1cccc(Cl)c1` [Example 134, (1S,2S)-2-(3-chlorophenyl)-N-(4-(((6-cyclopropyl-8-(3-hydroxyazetidin-3-yl)imidazo[1,2-a]pyridin-2-yl)methyl)amino)pyridin-2-yl)cyclopropane-1-carboxamide], in test [1], the EC50 is < 1 nM. Also, the IC90 in test [2] is < 400 nM.

Consider `CN1CC(O)(c2cc(C3CC3)cn3cc(CNc4cc(NC(=O)[C@H]5C[C@@H]5c5cccc(Cl)c5)ncn4)nc23)C1` [Example I-198, (1S,2S)-2-(3-chlorophenyl)-N-(6-(((6-cyclopropyl-8-(3-hydroxy-1-methylazetidin-3-yl)imidazo[1,2-a]pyridin-2-yl)methyl)amino)pyrimidin-4-yl)cyclopropane-1-carboxamide], for which the EC50 in test [1] was < 1 nM. Besides, the IC90 in test [2] is < 400 nM.

Consider `Cc1ccnc([C@H]2C[C@@H]2C(=O)Nc2cc(N(C)Cc3cn4cc(C5CC5)cc(N5CC(=O)N(C)C5=O)c4n3)ncn2)n1` (racemic) [Example 387, rac-(1S*,2S*)-N-(6-(((6-cyclopropyl-8-(3-methyl-2,4-dioxoimidazolidin-1-yl)imidazo[1,2-a]pyridin-2-yl)methyl)(methyl)amino)pyrimidin-4-yl)-2-(4-methylpyrimidin-2-yl)cyclopropane-1-carboxamide], for which the concentration for a half-maximal effect (EC50) in test [1] was < 1 nM. In test [2], the 90% effect concentration (IC90) was < 400 nM.
